Like-named read-outs stand apart in the source and are kept apart here.
Legend:
[1] = system: RBL-2H3 cells; assay: Inhibition of serotonin liberation from IgE-sensitized, antigen-stimulated RBL-2H3 cells ([3H]-serotonin); type: cell-based; conditions: Rattus norvegicus; IgE-sensitized RBL-2H3 cells stimulated with specific antigen; [3H]-labeled serotonin
Source text: Under the action of an antigen specific to the IgE antibody, RBL-2H3 cells, i.e., a cell line originating in rat cells, not only liberate histamine and serotonin but also produce and liberate cytokines such as TNF" serving as an inflammatory mediator and prostaglandins. In this experimental system, the effects of the compounds of the present invention of inhibiting the liberation of various mediators were examined by using serotonin as an indication.
The cells were labeled with [^3H]-labeled serotonin and, at the same time, sensitized with the IgE antibody. Next, these cells were incubated in the presence of the acridone compounds according to the present invention and then stimulated with the specific antigen. Then the serotonin liberation inhibitory activity of each acridone compound was calculated from the amount of the [^3H]-labeled serotonin thus liberated into the medium due to the above-mentioned stimulation and the amount of the [^3H]-labeled serotonin liberated into the medium by the same experimental procedure as the one described above but adding no acridone compound of the present invention.

[2] = system: human basophils; assay: Inhibition of mediator (histamine, peptide leukotriene) liberation from human basophils stimulated with tick antigen; type: cell-based; conditions: leukocyte fraction containing basophils, enzyme immunoassay
Procedure: To 20 ml of heparinized blood was added 6 ml of 6% dextran (for separating leukocytes, high molecular weight). The obtained mixture was thoroughly stirred and then allowed to stand at 37°C for 30 minutes to thereby sediment erythrocytes. The upper layer was taken out and phosphate-buffered saline was added thereto. The obtained mixture was centrifuged at 185 G for eight minutes to thereby give a crude leukocyte fraction. These cells (leukocyte fraction) were subjected to hypotonic hemolysis and then suspended in D-PBS(+) containing 0.1% of BSA. The cell suspension thus prepared was used in the subsequent experiment as the leukocyte fraction containing basophils.
To 0.4 ml of this cell suspension preliminarily heated at 37°C for 5 minutes was added 0.05 ml of a solution containing each acridone compound of the present invention. The obtained mixture was then allowed to stand at 37°C for 15 minutes so that the cells were pre-treated. Next, 0.05 ml of a tick antigen solution was added thereto to thereby induce an antigen-antibody reaction. Ten minutes thereafter, the antigen-antibody reaction was ceased by ice-cooling. After ceasing the reaction, the mixture was centrifuged at 185 G for ten minutes. The supernatant was taken out and the contents of histamine and a peptide leukotriene therein were determined by using each an enzyme immunoassay kit. Based on the data thus obtained, the activities of the compound of inhibiting the liberation of histamine and peptide leukotriene were determined.

[3] = molecular target: T1, tyrosine kinase of 72 kDa (Rattus norvegicus, UniProt Q64725); assay: Inhibition of phosphorylation (activation) of the 72 kDa tyrosine kinase induced by phosphorylated TAM peptide of IgE receptor γ-chain, western blotting; type: biochemical; conditions: Compd. concentration 10 μM; RBL-2H3 lysate or cytosol, TAM peptide 10 µM, ATP 50 µM; tyrosine kinase phosphorylation inhibitory ratio; read-out: Inhibitory potency
T1 construct: the tyrosine kinase of 72 kDa contained in the lysate or cytosol thus prepared; endogenous in cells; host or cells: RBL-2H3 cells (NP-40 lysate or cytosol fraction)
T1 sequence (Q64725 whole entry): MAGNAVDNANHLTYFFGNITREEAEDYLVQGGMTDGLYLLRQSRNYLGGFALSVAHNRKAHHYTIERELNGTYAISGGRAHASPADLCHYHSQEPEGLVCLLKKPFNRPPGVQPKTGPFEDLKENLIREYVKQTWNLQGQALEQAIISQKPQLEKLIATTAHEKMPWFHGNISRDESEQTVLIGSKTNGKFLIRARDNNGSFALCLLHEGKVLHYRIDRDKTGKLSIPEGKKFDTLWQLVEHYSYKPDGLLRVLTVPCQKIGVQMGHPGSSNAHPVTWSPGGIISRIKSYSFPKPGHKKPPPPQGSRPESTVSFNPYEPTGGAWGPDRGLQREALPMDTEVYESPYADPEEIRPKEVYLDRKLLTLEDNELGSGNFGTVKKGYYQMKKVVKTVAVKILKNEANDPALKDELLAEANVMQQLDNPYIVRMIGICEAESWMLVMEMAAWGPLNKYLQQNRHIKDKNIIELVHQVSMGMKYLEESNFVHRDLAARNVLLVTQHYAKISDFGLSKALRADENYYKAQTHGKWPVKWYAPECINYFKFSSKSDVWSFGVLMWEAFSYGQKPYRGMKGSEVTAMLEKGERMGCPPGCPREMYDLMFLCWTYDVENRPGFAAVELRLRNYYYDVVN
Source text: In this experiment, use was made of RBL-2H3 cells, i.e., a cell line which is generally employed in the studies on the informational transmission system in IgE receptors of mast cells or basophils and a peptide in the tyrosine activation motif (TAM) region containing phosphorylated tyrosine in a human IgE receptor γ chain synthesized by Peputido Kenkyusho K.K..
In this experiment, use was made of a lysate which had been obtained by solubilizing 1 × 10^7 to 5 × 10^7 cells with the use of a solution containing various proteases and NP-40 employed as a solubilizer at a concentration of 1% and a supernatant (as the cytosol fraction of the cells) which had been obtained by disrupting the cells with Down's homogenizer and centrifuging the obtained mixture at 50,000 rpm for 1 hour. The concentrations of the lysate and cytosol of the cells were each adjusted to 1 mg protein/ml with the use of an isotonic buffer. […]
The extent of the activation of this tyrosine kinase was determined by confirming the extent of the phosphorylation of the tyrosine moiety in the tyrosine kinase per se by western blotting with the use of an anti-tyrosine phosphorylation antibody and then numerically expressing the obtained data with an image analyzer. Based on the extent of the phosphorylation thus obtained, the tyrosine kinase phosphorylation inhibitory ratio of the compound 101 was determined.

[4] = histamine, read-out: IC50 (µM) in mediator liberation from human basophils histamine
[5] = peptide leukotriene, read-out: IC50 (µM) in mediator liberation from human basophils leukotriene

| IC50 [2, 4] [µM] | IC50 [2, 5] [µM] | inhibition at 10 µM [3] [%] | Compound | IC50 [1] [µM] |
| --- | --- | --- | --- | --- |
| 10 | 3 | – | COc1c(CNCCCn2c3cccc(CC(=O)O)c3c(=O)c3ccc(C)c(C)c32)ccc(Cl)c1Cl [Compound 28] | 1 |
| 30 to 100 | 3 to 10 | – | Cc1ccc2c(=O)c3c(C(C)C(=O)O)cccc3n(CCCNCc3ccccc3)c2c1C (stereo not shown) [Compound 141] | 1 |
| 10 to 30 | 3 to 10 | – | Cc1ccc2c(=O)c3c(CC(=O)O)cccc3n(CCCNCc3ccc(Cl)cc3Cl)c2c1C [Compound 13] | 0.2 |
| 10 | 3 | – | Cc1ccc2c(=O)c3ccccc3n(CCCNCc3ccccc3O)c2c1C [Compound 39] | 1 |
| 30 | 10 | – | Cc1ccc2c(=O)c3c(C(C)C(=O)O)cccc3n(CCCNCc3ccc(Cl)cc3Cl)c2c1C (stereo not shown) [Compound 143] | 1 |
| – | – | – | Cc1ccc(CN(C)CCCn2c3cccc(CC(=O)O)c3c(=O)c3ccc(C)c(C)c32)cc1 [Compound 95] | 10 |
| – | – | – | CCOC(=O)Cc1cccc2c1c(=O)c1ccc(C)c(C)c1n2CCCNCc1ccccc1 [Compound 21] | 8 |
| – | – | – | Cc1ccc2c(=O)c3ccccc3n(Cc3ccc(CNCc4ncc[nH]4)cc3)c2c1C [Compound 126] | 10 |
| – | – | – | Cc1ccc2c(=O)c3c(CC(=O)O)cccc3n(CCCN(C)Cc3cccc4ccccc34)c2c1C [Compound 97] | 10 |
| – | – | – | Cc1ccc2c(=O)c3c(CC(=O)O)cccc3n(CCCNCc3cc4ccccc4o3)c2c1C [Compound 11] | 0.5 |
| – | – | – | Cc1ccc2c(=O)c3c(CC(=O)N(C)C)cccc3n(CCCN(C)Cc3ccccc3)c2c1C [Compound 136] | 10 |
| – | 10 to 30 | – | CNC(=O)Cc1cccc2c1c(=O)c1ccc(C)c(C)c1n2CCCN(C)Cc1ccccc1 [Compound 135] | 2 |
| – | – | – | Cc1ccc2c(=O)c3ccccc3n(Cc3cccc(CN)n3)c2c1C [Compound 120] | 8 |
| – | – | – | Cc1ccc2c(=O)c3ccccc3n(CCCNCc3ccc(C#N)cc3)c2c1C [Compound 36] | 2 |
| – | – | – | Cc1ccc2c(=O)c3ccccc3n(CCCNCc3cccc(F)c3)c2c1C [Compound 42] | 2 |
| – | – | – | COc1ccc(CNCCCn2c3cccc(CC(=O)O)c3c(=O)c3ccc(C)c(C)c32)c(OC)c1 [Compound 99] | 10 |
| – | – | – | COC(=O)c1ccc(CNCCCn2c3ccccc3c(=O)c3ccc(C)c(C)c32)cc1 [Compound 50] | 4 |
| – | – | – | Cc1ccc2c(=O)c3c(CC(=O)O)cccc3n(CCCNCc3cccc(Cl)c3)c2c1C [Compound 106] | 10 |
| – | – | – | Cc1ccc2c(=O)c3ccccc3n(CCCNCc3cccc(C(=O)O)c3)c2c1C [Compound 56] | 7 |
| – | – | – | Cc1ccccc1CNCCCn1c2ccccc2c(=O)c2ccc(C)c(C)c21 [Compound 32] | 1 |
| – | – | – | Cc1cc(CNCCCn2c3ccccc3c(=O)c3ccc(C)c(C)c32)cc(C)c1O [Compound 47] | 7 |
| 30 | 30 to 100 | – | Cc1ccc2c(=O)c3c(CC(=O)O)cccc3n(CCCNCc3ccccc3)c2c1C [Compound 1] | 3 |
| – | – | – | Cc1ccc2c(=O)c3ccccc3n(CCCNCc3ccccc3C(F)(F)F)c2c1C [Compound 61] | 1 |
| – | – | – | Cc1ccc2c(=O)c3c(C(C)CC(=O)O)cccc3n(CCCNCc3ccccc3)c2c1C (stereo not shown) [Compound 8] | 8 |
| – | – | – | Cc1ccc2c(=O)c3ccccc3n(CCCNc3cccc(-c4nnn[nH]4)c3)c2c1C [Compound 80] | 11 |
| – | – | – | Cc1ccc2c(=O)c3ccccc3n(CCCNCc3ccc(Cl)cc3Cl)c2c1C [Compound 67] | 1 |
| – | – | – | Cc1ccc2c(=O)c3ccccc3n(CCCNCc3cccc(Cl)c3)c2c1C [Compound 64] | 5 |
| – | 10 to 30 | 70 | Cc1ccc2c(=O)c3c(CC(=O)O)cccc3n(CCCN(C)Cc3ccccc3)c2c1C [Compound 101] | 3 |

Reference: patent EP0857721A1, “ACRIDONE COMPOUNDS” (Eisai Co., Ltd., priority 1995, dated 1997)
